In patent US9751869B2, “LXR modulators” (BRISTOL-MYERS SQUIBB COMPANY, priority 2013, dated 2017):

Biological target: T1, LXRβ (Homo sapiens, UniProt P55055)
T1 construct: Co-transfection expression plasmids, comprising full-length LXRα (pCMX-h LXRα or LXRβ (pCMX-hLXRβ)); expressed in transfected cells; host or cells: CV-1 African green monkey kidney cells, transient transfection with pCMX-hLXRβ
T1 sequence (P55055 1-460): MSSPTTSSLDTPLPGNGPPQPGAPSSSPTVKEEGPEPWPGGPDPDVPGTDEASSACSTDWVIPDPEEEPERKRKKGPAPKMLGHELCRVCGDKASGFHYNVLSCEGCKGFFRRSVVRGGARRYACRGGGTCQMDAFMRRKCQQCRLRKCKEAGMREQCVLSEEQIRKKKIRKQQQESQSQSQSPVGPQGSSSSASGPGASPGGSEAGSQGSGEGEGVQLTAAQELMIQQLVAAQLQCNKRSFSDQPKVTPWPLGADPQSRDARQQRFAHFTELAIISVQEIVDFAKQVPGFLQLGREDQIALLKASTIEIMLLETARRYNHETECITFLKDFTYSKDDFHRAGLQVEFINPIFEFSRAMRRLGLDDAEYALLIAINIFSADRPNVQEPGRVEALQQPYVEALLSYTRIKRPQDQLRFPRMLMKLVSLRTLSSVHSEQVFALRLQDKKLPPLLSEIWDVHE
T1 sequence (P19793 1-462 partner): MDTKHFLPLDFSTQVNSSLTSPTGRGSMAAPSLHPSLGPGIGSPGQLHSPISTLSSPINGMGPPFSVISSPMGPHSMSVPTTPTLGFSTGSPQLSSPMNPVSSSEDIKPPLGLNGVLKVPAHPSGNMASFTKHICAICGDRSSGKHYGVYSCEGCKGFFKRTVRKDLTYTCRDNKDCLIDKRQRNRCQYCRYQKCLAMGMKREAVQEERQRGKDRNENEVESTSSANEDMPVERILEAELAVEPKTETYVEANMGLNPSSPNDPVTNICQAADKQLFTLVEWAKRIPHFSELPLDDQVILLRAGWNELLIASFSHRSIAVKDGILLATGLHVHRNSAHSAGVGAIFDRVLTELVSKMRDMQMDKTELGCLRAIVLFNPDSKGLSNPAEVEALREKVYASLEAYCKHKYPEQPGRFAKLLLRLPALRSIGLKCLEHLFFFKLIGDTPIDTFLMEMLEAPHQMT
Test: LXR/LXRE co-transfection assay (luciferase reporter) in CV-1 cells, LXRβ
Assay type: cell-based
Conditions: for EC50: CV-1 cells transfected with pCMX-hLXRβ and LXREx1-Tk-Luciferase, 20 hours incubation, read-out: LXRbeta agonism EC50; for Emax: CV-1 cells, relative to maximum response of high control N-(3-((4-fluorophenyl)-(naphthalene-2-sulfonyl)amino)propyl)-2,2-dimethylpropionamide, read-out: LXRbeta % EFFICACY
Procedure, shortened: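 CV-1 cells transiently co-transfected with full-length human LXRβ, LXRE-Tk-luciferase reporter and β-galactosidase control, then exposed to compound (≤0.5% DMSO) for 20 h at 37 °C before luminescence read. EC50 from 10-point, half-log dose curves; efficacy relative to the sulfonamide high control, means of 2–3 experiments.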

| EC50 | Emax | SMILES |
| --- | --- | --- |
| 497 nM | 62% | Cc1nc(-c2ccc3c(c2)OC(F)(F)O3)c(-c2cc(-c3cc(F)c(CO)c(S(C)(=O)=O)c3)ccc2-c2cc(C(F)(F)C(=O)N3CCCC3)nn2C)o1 [Example 83, 2-(5-(3-(4-(2,2-difluorobenzo[d][1,3]dioxol-5-yl)-2-methyloxazol-5-yl)-3′-fluoro-4′-(hydroxymethyl)-5′-(methylsulfonyl)-[1,1′-biphenyl]-4-yl)-1-methyl-1H-pyrazol-3-yl)-2,2-difluoro-1-(pyrrolidin-1-yl)ethanone] |
| 165 nM | 56% | Cc1cc(C(F)(F)F)n(-c2ccc(-c3cc(F)c(CO)c(S(C)(=O)=O)c3)cc2-c2nc(C)oc2-c2ccc(OC(F)F)cc2)n1 [Example 391, (3′-(5-(4-(difluoromethoxy)phenyl)-2-methyloxazol-4-yl)-3-fluoro-4′-(3-methyl-5-(trifluoromethyl)-1H-pyrazol-1-yl)-5-(methylsulfonyl)biphenyl-4-yl)methanol] |
| 21 nM | 76% | Cc1nc(-c2cc(F)c(OC(F)F)c(F)c2)c(-c2cc(-c3cccc(S(C)(=O)=O)c3)ccc2-n2cc(Cl)c(C(F)(F)F)n2)o1 [Example 421] |
| 13 nM | 78% | Cc1nc(-c2ccc(OC(F)F)c(F)c2)c(-c2cc(-c3cc(F)c(CO)c(S(C)(=O)=O)c3)ccc2-n2cc(Cl)c(C(F)(F)F)n2)o1 [Example 434, (4′-(4-chloro-3-(trifluoromethyl)-1H-pyrazol-1-yl)-3′-(4-(4-(difluoromethoxy)-3-fluorophenyl)-2-methyloxazol-5-yl)-3-fluoro-5-(methylsulfonyl)-[1,1′-biphenyl]-4-yl)methanol] |
| 392 nM | 41% | Cc1nc(-c2ccc3c(c2)OC(F)(F)O3)c(-c2cc(-c3cccc(S(C)(=O)=O)c3)ccc2-n2ccc(C(C)(C)O)n2)o1 [Example 357, 2-(1-(3-(4-(2,2-difluorobenzo[d][1,3]dioxol-5-yl)-2-methyloxazol-5-yl)-3′-(methylsulfonyl)-[1,1′-biphenyl]-4-yl)-1H-pyrazol-3-yl)propan-2-ol] |
| 1080 nM | 60% | Cc1nc(-c2ccc3c(c2)OC(F)(F)O3)c(-c2cc(-c3cccc(S(C)(=O)=O)c3)ccc2-c2cc(CC(N)=O)nn2C)o1 [Example 119, 2-(5-(3-(4-(2,2-difluorobenzo[d][1,3]dioxol-5-yl)-2-methyloxazol-5-yl)-3′-(methylsulfonyl)-[1,1′-biphenyl]-4-yl)-1-methyl-1H-pyrazol-3-yl)acetamide] |
| 193 nM | 52% | Cc1nc(-c2ccc3c(c2)OC(F)(F)O3)c(-c2cc(-c3cccc(S(C)(=O)=O)c3)ccc2-c2cc(-c3nnco3)nn2C)o1 [Example 100, 2-(5-(3-(4-(2,2-difluorobenzo[d][1,3]dioxol-5-yl)-2-methyloxazol-5-yl)-3′-(methylsulfonyl)-[1,1′-biphenyl]-4-yl)-1-methyl-1H-pyrazol-3-yl)-1,3,4-oxadiazole] |
| 122 nM | 61% | CNC(=O)C(F)(F)c1cc(-c2ccc(-c3cc(F)c(CO)c(S(C)(=O)=O)c3)cc2-c2oc(C)nc2-c2ccc3c(c2)OC(F)(F)O3)n(C)n1 [Example 50, 2-(5-(3-(4-(2,2-difluorobenzo[d][1,3]dioxol-5-yl)-2-methyloxazol-5-yl)-3′-fluoro-4′-(hydroxymethyl)-5′-(methylsulfonyl)biphenyl-4-yl)-1-methyl-1H-pyrazol-3-yl)-2,2-difluoro-N-methylacetamide] |
| 1090 nM | 15% | Cn1nc(C(F)(F)C#N)cc1-c1ccc(-c2cccc(S(C)(=O)=O)c2)cc1-n1nncc1-c1ccc(OC(F)(F)F)cc1 [Example 30, 2,2-difluoro-2-(1-methyl-5-(3′-(methylsulfonyl)-3-(5-(4-(trifluoromethoxy)phenyl)-1H-1,2,3-triazol-1-yl)-[1,1′-biphenyl]-4-yl)-1H-pyrazol-3-yl)acetonitrile] |
